Measured values from the supplement of paper PMC10627819.

Columns and labels:
S. aureus DSM 20231 = assay: Bliss interaction score (quartile over a dose matrix) (fitness difference); higher = more antagonism (negative = synergy)
How it was run: (§1)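 The Bliss score was calculated by subtracting the expected fitness, the product of single-drug values, from the observed fitness. OD595 at entry into stationary phase, over the plate's robust no-drug mean and capped at 1, served as the fitness readout. Single-drug values were inferred from combination data, and scores are summarised by quartiles across technical, biological and donor/recipient replicates.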

B. subtilis 168 [1] = assay: as above
How it was run: as §1

S. pneumoniae D39V [2] = assay: as above
How it was run: as §1

S. aureus Newman [3] = assay: as above
How it was run: as §1

B. subtilis 168 [4] = assay: fitness (endpoint OD595 vs no drug) (fraction); higher = more growth
How it was run: (§2)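 Growth medium was TSB, LB Lennox or CY, and plates were kept at 37 °C. Inoculation was at OD595 0.01 in 384-well plates, at 30 µl per well or 55 µl for S. pneumoniae. OD595 was monitored every 30 min for 14 h and background-subtracted using the first reading. Fitness is the optical density on entering stationary phase divided by the robust mean of no-drug controls, with values capped at 1.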

S. pneumoniae D39V [5] = assay: as above
How it was run: as §2

S. aureus Newman [6] = assay: as above
How it was run: as §2
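Wherever Bliss interaction score (quartile over a dose matrix) is given: first quartile when negative (synergy) and third quartile when positive (antagonism).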

C[n+]1ccc(-c2cc[n+](C)cc2)cc1 [Paraquat] + CN[C@@H]1[C@H](O[C@H]2[C@H](O[C@H]3[C@H](O)[C@@H](O)[C@H](N=C(N)N)[C@@H](O)[C@@H]3N=C(N)N)O[C@@H](C)[C@]2(O)C=O)O[C@@H](CO)[C@H](O)[C@H]1O [Streptomycin]
Conditions	Bliss interaction score
B. subtilis 168 [1]	-0.119
S. aureus DSM 20231	0.118
S. aureus Newman [3]	0.0567
S. pneumoniae D39V [2]	-0.0799

fitness
Conditions	partner 1 µg/mL	partner 2 µg/mL	partner 4 µg/mL	partner 8 µg/mL
B. subtilis 168 [4], first compound 1.25 µg/mL	–	0.886	–	0.0237
B. subtilis 168 [4], first compound 2.5 µg/mL	–	0.924	–	0.0505
B. subtilis 168 [4], first compound 5 µg/mL	–	0.777	0.26	0.0406
S. aureus Newman [6], first compound 1.25 µg/mL	0.99	0.882	–	–
S. aureus Newman [6], first compound 2.5 µg/mL	0.907	0.912	–	–
S. aureus Newman [6], first compound 5 µg/mL	0.908	0.859	–	–
S. pneumoniae D39V [5], first compound 1.5 µg/mL	–	0.953	0.983	0.89
S. pneumoniae D39V [5], first compound 3 µg/mL	–	0.967	0.964	0.884
S. pneumoniae D39V [5], first compound 6 µg/mL	–	0.946	0.916	0.866

S. pneumoniae D39V [5], partner 16 µg/mL, one replicate
Conditions	fitness
first compound 1.5 µg/mL	0.865
first compound 3 µg/mL	0.857
first compound 6 µg/mL	0.722

Cn1c2cccc(=O)c-2nc2ccccc21 [Pyocyanin] + CN(C)c1cc(NC(=O)CNC(C)(C)C)c(O)c2c1C[C@H]1C[C@H]3[C@H](N(C)C)C(O)=C(C(N)=O)C(=O)[C@@]3(O)C(O)=C1C2=O [Tigecycline]
Conditions	Bliss interaction score
B. subtilis 168 [1]	-0.04
S. aureus DSM 20231	-0.0925
S. aureus Newman [3]	0.0936
S. pneumoniae D39V [2]	0.0539

fitness
Conditions	first compound 0.325 µg/mL	first compound 0.65 µg/mL	first compound 1.25 µg/mL	first compound 1.3 µg/mL	first compound 2.5 µg/mL	first compound 5 µg/mL
B. subtilis 168 [4], partner 0.039 µg/mL	–	–	0.956	–	0.903	0.786
B. subtilis 168 [4], partner 0.078 µg/mL	–	–	0.953	–	0.876	0.747
B. subtilis 168 [4], partner 0.156 µg/mL	–	–	0.935	–	0.863	0.762
S. aureus Newman [6], partner 0.039 µg/mL	–	–	0.879	–	0.81	0.426
S. aureus Newman [6], partner 0.078 µg/mL	–	–	0.854	–	0.808	0.412
S. aureus Newman [6], partner 0.156 µg/mL	–	–	0.886	–	0.807	0.401
S. pneumoniae D39V [5], partner 0.65 µg/mL	0.965	0.975	–	0.697	–	–
S. pneumoniae D39V [5], partner 1.3 µg/mL	≥ 1	0.966	–	0.708	–	–
S. pneumoniae D39V [5], partner 2.6 µg/mL	0.979	0.928	–	0.668	–	–

fitness, B. subtilis 168 [4], one replicate
Conditions	first compound 1.25 µg/mL	first compound 2.5 µg/mL	first compound 5 µg/mL
partner 0.125 µg/mL	0.964	0.97	0.955
partner 0.25 µg/mL	0.865	0.847	0.882
partner 0.5 µg/mL	0.91	0.867	0.801

Cn1c2cccc(=O)c-2nc2ccccc21 [Pyocyanin] + CN[C@@H]1[C@H](O[C@H]2[C@H](O[C@H]3[C@H](O)[C@@H](O)[C@H](N=C(N)N)[C@@H](O)[C@@H]3N=C(N)N)O[C@@H](C)[C@]2(O)C=O)O[C@@H](CO)[C@H](O)[C@H]1O [Streptomycin]
Conditions	Bliss interaction score
B. subtilis 168 [1]	0.474
S. aureus DSM 20231	0.109
S. aureus Newman [3]	-0.0643
S. pneumoniae D39V [2]	-0.103

fitness
Conditions	partner 1 µg/mL	partner 2 µg/mL	partner 4 µg/mL	partner 8 µg/mL
B. subtilis 168 [4], first compound 1.25 µg/mL	–	0.938	0.765	–
B. subtilis 168 [4], first compound 2.5 µg/mL	–	0.929	0.879	–
B. subtilis 168 [4], first compound 5 µg/mL	–	0.818	0.791	0.686
S. aureus Newman [6], first compound 1.25 µg/mL	0.891	0.844	–	–
S. aureus Newman [6], first compound 2.5 µg/mL	0.796	0.693	–	–
S. aureus Newman [6], first compound 5 µg/mL	0.427	0.308	0.253	–
S. pneumoniae D39V [5], first compound 0.325 µg/mL	–	≥ 1	≥ 1	0.935
S. pneumoniae D39V [5], first compound 0.65 µg/mL	–	0.943	0.889	0.791
S. pneumoniae D39V [5], first compound 1.3 µg/mL	–	–	0.734	0.592

fitness, S. pneumoniae D39V [5], one replicate
Conditions	first compound 0.325 µg/mL	first compound 0.65 µg/mL	first compound 1.3 µg/mL
partner 2 µg/mL	–	–	0.756
partner 16 µg/mL	0.649	0.61	0.475

CN(N=O)C(=O)N[C@@H](C=O)[C@@H](O)[C@H](O)[C@H](O)CO [Streptozotocin] + CN(C)c1cc(NC(=O)CNC(C)(C)C)c(O)c2c1C[C@H]1C[C@H]3[C@H](N(C)C)C(O)=C(C(N)=O)C(=O)[C@@]3(O)C(O)=C1C2=O [Tigecycline]
Conditions	Bliss interaction score
B. subtilis 168 [1]	-0.0405
S. aureus DSM 20231	0.0681
S. aureus Newman [3]	0.0493
S. pneumoniae D39V [2]	0.0675

fitness, B. subtilis 168 [4], one replicate
Conditions	partner 0.039 µg/mL	partner 0.078 µg/mL	partner 0.125 µg/mL	partner 0.156 µg/mL	partner 0.25 µg/mL	partner 0.5 µg/mL
first compound 0.15 µg/mL	0.936	0.975	0.958	0.877	0.892	0.921
first compound 0.3 µg/mL	≥ 1	≥ 1	0.995	0.907	0.836	0.86
first compound 0.6 µg/mL	≥ 1	0.956	0.961	0.99	0.83	0.904

fitness
Conditions	first compound 0.15 µg/mL	first compound 0.3 µg/mL	first compound 0.6 µg/mL	first compound 1.2 µg/mL	first compound 2.4 µg/mL	first compound 4.8 µg/mL
S. aureus Newman [6], partner 0.039 µg/mL	0.829	0.711	0.555	–	–	–
S. aureus Newman [6], partner 0.078 µg/mL	0.837	0.685	0.504	–	–	–
S. aureus Newman [6], partner 0.156 µg/mL	0.904	0.711	0.511	–	–	–
S. pneumoniae D39V [5], partner 0.65 µg/mL	–	–	–	0.934	0.965	0.973
S. pneumoniae D39V [5], partner 1.3 µg/mL	–	–	–	0.952	0.987	0.939
S. pneumoniae D39V [5], partner 2.6 µg/mL	–	–	–	0.964	0.948	0.956

Cc1cc(NS(=O)(=O)c2ccc(N)cc2)no1 [Sulfamethoxazol] + CN(C)c1cc(NC(=O)CNC(C)(C)C)c(O)c2c1C[C@H]1C[C@H]3[C@H](N(C)C)C(O)=C(C(N)=O)C(=O)[C@@]3(O)C(O)=C1C2=O [Tigecycline]
Conditions	Bliss interaction score
B. subtilis 168 [1]	0.0319
S. aureus DSM 20231	0.108
S. aureus Newman [3]	0.0399
S. pneumoniae D39V [2]	0.0567

fitness, one replicate
Conditions	partner 0.039 µg/mL	partner 0.078 µg/mL	partner 0.125 µg/mL	partner 0.156 µg/mL	partner 0.25 µg/mL	partner 0.5 µg/mL
B. subtilis 168 [4], first compound 0.5 µg/mL	≥ 1	0.989	–	0.959	–	–
B. subtilis 168 [4], first compound 1 µg/mL	–	–	0.963	–	0.923	0.903
B. subtilis 168 [4], first compound 2 µg/mL	–	–	0.942	–	0.88	0.859
B. subtilis 168 [4], first compound 4 µg/mL	–	–	0.922	–	0.899	0.925
S. aureus Newman [6], first compound 8 µg/mL	0.856	0.865	–	0.934	–	–

fitness
Conditions	first compound 1 µg/mL	first compound 2 µg/mL	first compound 4 µg/mL
B. subtilis 168 [4], partner 0.039 µg/mL	0.917	0.92	≥ 1
B. subtilis 168 [4], partner 0.078 µg/mL	0.903	0.921	0.97
B. subtilis 168 [4], partner 0.156 µg/mL	0.911	0.897	0.982
S. aureus Newman [6], partner 0.039 µg/mL	0.991	0.996	≥ 1
S. aureus Newman [6], partner 0.078 µg/mL	0.982	0.999	0.966
S. aureus Newman [6], partner 0.156 µg/mL	0.986	0.983	≥ 1
S. pneumoniae D39V [5], partner 0.65 µg/mL	0.944	0.961	0.937
S. pneumoniae D39V [5], partner 1.3 µg/mL	0.952	0.932	0.937
S. pneumoniae D39V [5], partner 2.6 µg/mL	0.936	0.937	0.95
